Like-named read-outs stand apart in the source and are kept apart here.
Columns and labels:
[1] = test system: human A375 melanoma xenograft; assay: A375 xenograft study e209 (Example 27); conditions: 30 mg/kg iv q4d × 4; for CR (complete regression) / NTR NTRa/u / NTR NTRm / PR (partial regression) / TFS (tumor-free survivor) / TR (treatment-related death): n=6; for % TGD / Median TTE / T-C: vehicle EL
Method: The endpoint was a tumor volume of 2,000 mm^3 and the study was terminated on Day 56. Efficacy was assessed by tumor growth delay and the number of partial and complete regressions. Animals with a CR that persisted through Day 56 were classified as long-term tumor-free survivors (TFS).

TK-10 = assay: MTT cytotoxicity (IC50), TK-10; format: cell-based; conditions: Homo sapiens, 72 h, read-out: IN Vitro IC50 (nm) TK10
Method: (§1) Compound 17932 was tested in four of these cell lines, while the remaining compounds were tested in all of these cell lines. All cell lines were maintained in RPMI-1640 tissue culture medium (TCM, supplemented with antibiotics and 10% fetal bovine serum) and cultured at 37° C. in humidified air containing 5% CO2. To assess the antiproliferative effects of the test compounds, 172 μL of tumor cell suspension (1.45×10^4 cells/ml) were added to each well of a 96-well plate and incubated for 24 h at 37° C. in 5% CO2 in air to allow cells to adhere. Seven 2-fold drug dilutions in TCM/DMSO were performed in triplicate in separate 96-well plates and 28 μL was transferred to the wells containing tumor cells (200 μL final volume/0.1% DMSO). Plates were incubated for 72 h and cell viability was determined by adding 50 μL of warm TCM containing 5 mg/mL MTT (3-[4,5-dimethylthiazol-2-yl]-2,5-diphenyltetrazolium bromide) to each well and incubating for 1 h at 37° C. Plates were processed and the absorbances of the resulting solutions were measured by a plate reader at 570 nm. […] (GraphPad Prism version 4.00 for Windows). Studies were conducted by Taxolog, Inc., Tallahassee, Fla.

A549 = assay: MTT cytotoxicity (IC50), A549; format: cell-based; conditions: Homo sapiens, 72 h, read-out: IN Vitro IC50 (nm) A549
Method: as §1

[2] = test system: human MX-1 breast carcinoma; assay: MX1 xenograft study e219R1, i.v. single dose (Example 17); conditions: for CR (complete regression) / NTR (non-treatment-related death) / PR (partial regression) / TFS (tumor-free survivor) / TR (treatment-related death): n=5
[3] = test system: HT29 human tumor xenografts; assay: HT29 xenograft study e212, oral and i.v. (Example 26); conditions: for CR (complete regression) / NTR NTRa/u / NTR NTRm / PR (partial regression) / TFS (tumor-free survivor) / TR (treatment-related death): n=6
Source text: (§2) The formulation for oral studies was an ethanol and Cremophor formulation while the formulation for compound 18365 and compound 19244 dosed i.v. was 5% ethanol and 95% Liposyn II 20%.

786-0 = assay: MTT cytotoxicity (IC50), 786-0; format: cell-based; conditions: Homo sapiens
Method: as §1

PANC-1 = assay: MTT cytotoxicity (IC50), PANC-1; format: cell-based; conditions: Homo sapiens, 72 h, read-out: IN Vitro IC50 (nm) Panc
Method: as §1

HOP-18 = assay: MTT cytotoxicity (IC50), HOP-18; format: cell-based; conditions: Homo sapiens, 72 h, read-out: IN Vitro IC50 (nm) HOP18
Method: as §1

[4] = test system: HT29 human tumor xenografts; assay: HT29 xenograft study e139 (Example 23); format: in vivo, nude mice
SK-MEL-28 = assay: MTT cytotoxicity (IC50), SK-MEL-28; format: cell-based; conditions: Homo sapiens, 72 h, read-out: IN Vitro IC50 (nm) ske-mel28
Method: as §1

HCT116 = assay: MTT cytotoxicity (IC50), HCT116; format: cell-based; conditions: Homo sapiens, HCT-116, 72 h, read-out: IN Vitro IC50 (nm) HCT116
Method: as §1, with “All” for “Compound 17932 was tested in four of these cell lines, while the remaining compounds were tested in all of these cell lines. All”

[5] = test system: HT29 human tumor xenografts; assay: HT29 xenograft study e210, oral and i.v. (Example 25); conditions: for CR (complete regression) / NTR NTRa/u / NTR NTRm / PR (partial regression) / TFS (tumor-free survivor) / TR (treatment-related death): n=6
Source text: as §2

[6] = 25 mg/kg iv q4d × 4, vehicle EL
[7] = 50 mg/kg po q4d × 4, vehicle EC
[8] = MTT, 72 h, read-out: IN Vitro IC50 (nm) 786-0
[9] = Resistance MDR1+, read-out: 786-0 Renal (Table 4, quantity not named; IC50 values as Table 2)
[10] = every four day schedule for four doses

## CCC(=O)O[C@H]1C(=O)[C@@]2(C)C([C@H](OC(=O)c3ccccc3)[C@]3(O)C[C@H](OC(=O)[C@H](O)[C@@H](NC(=O)OC4CCCC4)c4cccs4)C(C)=C1C3(C)C)[C@]1(OC(C)=O)CO[C@@H]1C[C@@H]2O (some centres unmarked) [Compound 18926]
[1]
  BW Nadir: 13.3% (18)
  MTV(n), Day 56: 0.00 (6) mm^3
  CR (complete regression): 6
  NTR NTRa/u: 0
  NTR NTRm: 0
  PR (partial regression): 0
  TFS (tumor-free survivor): 6
  TR (treatment-related death): 0
  % TGD: 210.08%
  Median TTE: 56 days
  T-C: 37.94 days
TK-10
  IC50: 300 pM
A549
  IC50: 400 pM
[2]; 7.5 mg/kg iv qd × 1
  % TGD: 16.46%
  BW Nadir: −7.6% (3)
  Median TTE: 37.43 days
  T-C: 5.29 days
  activity (statistical significance): non-significant activity
  maximum group mean BW loss: 7.6%
  CR (complete regression): 0
  NTR (non-treatment-related death): 0
  PR (partial regression): 0
  TFS (tumor-free survivor): 0
  TR (treatment-related death): 0
[2]; 15 mg/kg iv qd × 1
  % TGD: 89.79%
  BW Nadir: −6.6% (4)
  MTV (n), Day 60: 0.00 (4) mm^3
  Median TTE: 61 days
  T-C: 28.86 days
  maximum group mean BW loss: 6.6%
  CR (complete regression): 4
  NTR (non-treatment-related death): 0
  PR (partial regression): 0
  TFS (tumor-free survivor): 4
  TR (treatment-related death): 0
[2]; 30 mg/kg iv qd × 1
  % TGD: 89.79%
  BW Nadir: −15.5% (5)
  MTV (n), Day 60: 0.00 (5) mm^3
  Median TTE: 61 days
  T-C: 28.86 days
  maximum group mean BW loss: 15.5%
  CR (complete regression): 5
  NTR (non-treatment-related death): 0
  PR (partial regression): 0
  TFS (tumor-free survivor): 5
  TR (treatment-related death): 0
[2]; iv qd × 1, lowest dose with statistically significant results and at least one D61 survivor or regression
  minimal effective dose: 15 mg/kg
[3]; 25 mg/kg iv q4d × 4
  CR (complete regression): 5
  NTR NTRa/u: 0
  NTR NTRm: 0
  PR (partial regression): 0
  TFS (tumor-free survivor): 5
  TR (treatment-related death): 1
[3]; [6]
  % TGD: 237.14%
  BW Nadir: 13.5% (17)
  MTV (n), Day 59: 0.00 (5) mm^3
  Median TTE: 59 days
  T-C: 41.5 days
[3]; 50 mg/kg po q4d × 4
  CR (complete regression): 1
  NTR NTRa/u: 0
  NTR NTRm: 0
  PR (partial regression): 5
  TFS (tumor-free survivor): 1
  TR (treatment-related death): 0
[3]; [7]
  % TGD: 237.14%
  BW Nadir: 10.4% (17)
  MTV (n), Day 59: 20.25 (6) mm^3
  Median TTE: 59 days
  T-C: 41.5 days
786-0; [8]
  IC50: 700 pM
786-0; [9]
  IC50: 700 pM
PANC-1
  IC50: 500 pM
HOP-18
  IC50: 1600 pM
[4]; 20 mg/kg i.v. q4d×4
  MTV (Day 61): 83 mm^3
[4]; 20 mg/kg i.v. q4d×4, six mice
  PR responses: 5
[4]; 20 mg/kg iv q4d × 4
  Day 51 mm^3 (tumor size): 142.3 mm^3
  Day 54 mm^3 (tumor size): 147 mm^3
  Max. BW Loss %; Day: −20.7%; Day 16
[4]; 20 mg/kg iv q4d × 4, N=6
  Number of Death NTR: 0
  Number of Death TR: 0
SK-MEL-28
  IC50: 600 pM
HCT116
  IC50: 300 pM

## CCC(=O)O[C@H]1C(=O)[C@@]2(C)C([C@H](OC(=O)c3ccccc3)[C@]3(O)C[C@H](OC(=O)[C@H](O)[C@@H](NC(=O)OC4CCC4)c4cccs4)C(C)=C1C3(C)C)[C@]1(OC(C)=O)CO[C@@H]1C[C@@H]2O (some centres unmarked) [Compound 19244]
[1]
  BW Nadir: 10.4% (18)
  MTV(n), Day 56: 0.00 (6) mm^3
  CR (complete regression): 6
  NTR NTRa/u: 0
  NTR NTRm: 0
  PR (partial regression): 0
  TFS (tumor-free survivor): 6
  TR (treatment-related death): 0
  % TGD: 210.08%
  Median TTE: 56 days
  T-C: 37.94 days
TK-10
  IC50: 400 pM
A549
  IC50: 500 pM
[3]; [10]
  activity in the HT29 xenograft tumor model: oral and IV activity
786-0; [8]
  IC50: 900 pM
786-0; [9]
  IC50: 900 pM
PANC-1
  IC50: 1200 pM
[5]; 30 mg/kg iv q4d × 4
  % TGD: 214.3%
  BW Nadir: 11.1% (16)
  MTV (n), Day 60: 36.00 (6) mm^3
  Median TTE: 60 days
  T-C: 40.91 days
  CR (complete regression): 1
  NTR NTRa/u: 0
  NTR NTRm: 0
  PR (partial regression): 5
  TFS (tumor-free survivor): 1
  TR (treatment-related death): 0
[5]; 60 mg/kg po q4d × 4
  % TGD: 214.3%
  BW Nadir: −8.5% (16)
  MTV (n), Day 60: 0.25 (6) mm^3
  Median TTE: 60 days
  T-C: 40.91 days
  CR (complete regression): 4
  NTR NTRa/u: 0
  NTR NTRm: 0
  PR (partial regression): 2
  TFS (tumor-free survivor): 4
  TR (treatment-related death): 0
[5]; [10]
  activity in the HT29 xenograft tumor model: oral and IV activity
HOP-18
  IC50: 1500 pM
SK-MEL-28
  IC50: 2000 pM
HCT116
  IC50: 400 pM

Reference: patent publication US8242166B2, “C(10) ethyl ester and C(10) cyclopropyl ester substituted taxanes” (Florida State University Research Foundation, Inc., priority 2008, dated 2012)
